“And” between values parts separate entries of the source, which are not always exact repeats. Equal values may be shown once. Toxic doses and inconclusive results are not listed.
Tested on: CD2F1 mice, L1210 leukemia ip, survival T/C
Assay: NCI In Vivo Anticancer Drug Screen. Data for tumor model L1210 Leukemia (intraperitoneal) in CD2F1 (CDF1) mice
Conditions: higher = longer survival
Summary of the method: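 Mice carrying a transplanted tumor received test compound or vehicle alone. The value is the measurement in the treated group divided by that in the vehicle-treated control group.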

[1] = endpoint: mean survival time, dose: 100.0 mg/kg/injection, schedule: Q04DX003 (ip), vehicle: saline with Tween-80
[2] = endpoint: mean survival time, dose: 200.0 mg/kg/injection, schedule: Q04DX003 (ip), vehicle: saline with Tween-80
[3] = endpoint: mean survival time, dose: 400.0 mg/kg/injection, schedule: Q04DX003 (ip), vehicle: saline with Tween-80
[4] = endpoint: mean survival time, dose: 12.5 mg/kg/injection, schedule: Q01DX009 (ip), vehicle: saline with Tween-80
[5] = endpoint: mean survival time, dose: 25.0 mg/kg/injection, schedule: Q01DX009 (ip), vehicle: saline with Tween-80
[6] = endpoint: mean survival time, dose: 50.0 mg/kg/injection, schedule: Q01DX009 (ip), vehicle: saline with Tween-80
[7] = endpoint: mean survival time, dose: 100.0 mg/kg/injection, schedule: Q01DX009 (ip), vehicle: saline with Tween-80
[8] = endpoint: mean survival time, dose: 100.0 mg/kg/injection, schedule: Q01DX001 (ip), vehicle: saline with Tween-80
[9] = endpoint: mean survival time, dose: 200.0 mg/kg/injection, schedule: Q01DX001 (ip), vehicle: saline with Tween-80
[10] = endpoint: mean survival time, dose: 400.0 mg/kg/injection, schedule: Q01DX001 (ip), vehicle: saline with Tween-80
[11] = endpoint: mean survival time, dose: 6.25 mg/kg/injection, schedule: Q01DX009 (ip), vehicle: saline with Tween-80

N#CC(=C1SCS1)[N+](=O)[O-]
T/C (endpoint: mean survival time, dose: 0.37 mg/kg/injection, schedule: Q01DX009 (ip), vehicle: saline with Tween-80): 101 % of control and 102 % of control | T/C (endpoint: mean survival time, dose: 0.75 mg/kg/injection, schedule: Q01DX009 (ip), vehicle: saline with Tween-80): 101 % of control | T/C (endpoint: mean survival time, dose: 1.5 mg/kg/injection, schedule: Q01DX009 (ip), vehicle: saline with Tween-80): 100 % of control and 102 % of control | T/C (endpoint: mean survival time, dose: 3.0 mg/kg/injection, schedule: Q01DX009 (ip), vehicle: saline with Tween-80): 102 % of control and 104 % of control | T/C (endpoint: mean survival time, dose: 6.0 mg/kg/injection, schedule: Q01DX009 (ip), vehicle: saline with Tween-80): 108 % of control | T/C (endpoint: mean survival time, dose: 12.0 mg/kg/injection, schedule: Q01DX009 (ip), vehicle: saline with Tween-80): 106 % of control

CC(/C=N/NC(N)=S)Cc1ccc(C(C)C)cc1 (stereo not given)
T/C (endpoint: mean survival time, dose: 3.12 mg/kg/injection, schedule: Q01DX009 (ip), vehicle: acetone): 104 % of control | T/C (endpoint: mean survival time, dose: 6.25 mg/kg/injection, schedule: Q01DX009 (ip), vehicle: acetone): 104 % of control | T/C (endpoint: mean survival time, dose: 12.5 mg/kg/injection, schedule: Q01DX009 (ip), vehicle: acetone): 104 % of control

CC(=O)Nc1nc(C)c(CC/C=C/c2ccc([N+](=O)[O-])cc2)c(=O)[nH]1
T/C [1]: 94 % of control | T/C [2]: 97 % of control | T/C [3]: 90 % of control

COc1cc(OC)c(NC(=O)OCCOc2cc(C)c(Cl)c(C)c2)cc1Cl
T/C [4]: 95 % of control | T/C [5]: 95 % of control | T/C [6]: 98 % of control | T/C [7]: 88 % of control

Cc1ccc(C(=O)C(F)(F)F)cc1
T/C [8]: 104 % of control | T/C [9]: 101 % of control | T/C [10]: 96 % of control

COc1ccc(OC)c(NC(=O)Nc2ccc(C)c([N+](=O)[O-])c2)c1
T/C [6]: 98 % of control | T/C [7]: 94 % of control | T/C (endpoint: mean survival time, dose: 200.0 mg/kg/injection, schedule: Q01DX009 (ip), vehicle: saline with Tween-80): 94 % of control

O=CC(CO)OC(C=O)n1ccc(=O)[nH]c1=O (stereo not given)
T/C (endpoint: median survival time, dose: 50.0 mg/kg/injection, schedule: Q04DX003 (ip), vehicle: saline): 116 % of control | T/C (endpoint: median survival time, dose: 200.0 mg/kg/injection, schedule: Q04DX003 (ip), vehicle: saline): 178 % of control | T/C (endpoint: median survival time, dose: 400.0 mg/kg/injection, schedule: Q04DX003 (ip), vehicle: saline): 285 % of control | T/C (endpoint: median survival time, dose: 800.0 mg/kg/injection, schedule: Q04DX003 (ip), vehicle: saline): 261 % of control

CN(C)C(=S)NNC(=O)c1ccc(Cl)cc1
T/C (endpoint: mean survival time, dose: 25.0 mg/kg/injection, schedule: Q01DX001 (ip), vehicle: saline with Tween-80): 98 % of control

CC(=O)Nc1ccc([N+](=O)[O-])c(C(F)(F)F)c1
T/C [1]: 98 % of control | T/C [2]: 103 % of control

CC(C)(C)[Si](OC(=O)N(CCCl)N=O)(c1ccccc1)c1ccccc1
T/C (endpoint: mean survival time, dose: 6.25 mg/kg/injection, schedule: Q01DX001 (ip), vehicle: distilled water + Tween-80): 98 % of control | T/C (endpoint: mean survival time, dose: 12.5 mg/kg/injection, schedule: Q01DX001 (ip), vehicle: distilled water + Tween-80): 88 % of control | T/C (endpoint: mean survival time, dose: 25.0 mg/kg/injection, schedule: Q01DX001 (ip), vehicle: distilled water + Tween-80): 93 % of control | T/C (endpoint: mean survival time, dose: 50.0 mg/kg/injection, schedule: Q01DX001 (ip), vehicle: distilled water + Tween-80): 88 % of control | T/C (endpoint: mean survival time, dose: 100.0 mg/kg/injection, schedule: Q01DX001 (ip), vehicle: distilled water + Tween-80): 90 % of control

CC1CCCC(C)N1CC(O)c1ccccc1 (stereo not given)
T/C [11]: 98 % of control | T/C [4]: 100 % of control | T/C [5]: 102 % of control

[Cl][Pt+2][Cl].[NH-]C1CCCC1[NH-] (stereo not given)
T/C (endpoint: median survival time, dose: 10.0 mg/kg/injection, schedule: Q04DX003 (ip), vehicle: Klucel (hydroxypropylcellulose) (HPC)): 166 % of control and 173 % of control | T/C (endpoint: median survival time, dose: 20.0 mg/kg/injection, schedule: Q04DX003 (ip), vehicle: Klucel (hydroxypropylcellulose) (HPC)): 196 % of control and 333 % of control

CCOC(=O)C(C)Sc1nn(C2OC(COC(=O)c3ccccc3)C(OC(=O)c3ccccc3)C2OC(=O)c2ccccc2)c(=O)[nH]c1=O (stereo not given)
T/C (endpoint: mean survival time, dose: 12.5 mg/kg/injection, schedule: Q01DX005 (ip), vehicle: distilled water + Tween-80): 97 % of control | T/C (endpoint: mean survival time, dose: 25.0 mg/kg/injection, schedule: Q01DX005 (ip), vehicle: distilled water + Tween-80): 97 % of control | T/C (endpoint: mean survival time, dose: 50.0 mg/kg/injection, schedule: Q01DX005 (ip), vehicle: distilled water + Tween-80): 95 % of control | T/C (endpoint: mean survival time, dose: 100.0 mg/kg/injection, schedule: Q01DX005 (ip), vehicle: distilled water + Tween-80): 95 % of control | T/C (endpoint: mean survival time, dose: 200.0 mg/kg/injection, schedule: Q01DX005 (ip), vehicle: distilled water + Tween-80): 89 % of control

Cc1cc(Cc2ccccc2)c(O)c(Cc2ccccc2)c1
T/C (endpoint: mean survival time, dose: 100.0 mg/kg/injection, schedule: Q04DX003 (ip), vehicle: other): 96 % of control | T/C (endpoint: mean survival time, dose: 200.0 mg/kg/injection, schedule: Q04DX003 (ip), vehicle: other): 102 % of control | T/C (endpoint: mean survival time, dose: 400.0 mg/kg/injection, schedule: Q04DX003 (ip), vehicle: other): 94 % of control

O=CO.[Mn]
T/C (endpoint: mean survival time, dose: 5.0 mg/kg/injection, schedule: Q01DX001 (ip), vehicle: saline): 96 % of control | T/C (endpoint: mean survival time, dose: 10.0 mg/kg/injection, schedule: Q01DX001 (ip), vehicle: saline): 101 % of control | T/C (endpoint: mean survival time, dose: 20.0 mg/kg/injection, schedule: Q01DX001 (ip), vehicle: saline): 96 % of control | T/C (endpoint: mean survival time, dose: 40.0 mg/kg/injection, schedule: Q01DX001 (ip), vehicle: saline): 96 % of control | T/C (endpoint: mean survival time, dose: 80.0 mg/kg/injection, schedule: Q01DX001 (ip), vehicle: saline): 98 % of control

O=NCC1(Cl)CC2C=CC1C2 (stereo not given)
T/C [11]: 97 % of control | T/C [4]: 98 % of control | T/C [5]: 98 % of control

CN(Cc1ccc2nc(N)nc(N)c2n1)c1ccc(C(=O)NC(CCC(=O)O)C(=O)O)cc1 (stereo not given)
T/C (endpoint: mean survival time, dose: 0.12 mg/kg/injection, schedule: Q01DX005 (ip), vehicle: sodium bicarbonate): 150 % of control | T/C (endpoint: mean survival time, dose: 0.5 mg/kg/injection, schedule: Q01DX005 (ip), vehicle: sodium bicarbonate): 115 % of control | T/C (endpoint: mean survival time, dose: 31.25 micrograms/kg/injection, schedule: Q01DX005 (ip), vehicle: sodium bicarbonate): 101 % of control | T/C (endpoint: mean survival time, dose: 62.5 micrograms/kg/injection, schedule: Q01DX005 (ip), vehicle: sodium bicarbonate): 116 % of control | T/C (endpoint: mean survival time, dose: 125.0 micrograms/kg/injection, schedule: Q01DX005 (ip), vehicle: sodium bicarbonate): 122 % of control

O=C(CCl)OCc1ccc([N+](=O)[O-])o1
T/C [1]: 98 % of control | T/C [2]: 101 % of control

COc1cccc(/C=N/OCCNC(=O)c2ccc([N+](=O)[O-])cc2)c1
T/C [1]: 97 % of control | T/C [2]: 93 % of control | T/C [3]: 101 % of control

CS(=O)(=O)OCCCN(CCCOS(C)(=O)=O)c1ccc(C=Nc2ccc(-c3csc(COc4ccc(Cl)cc4)n3)cc2)cc1
T/C [8]: 91 % of control | T/C [9]: 91 % of control | T/C [10]: 95 % of control

CCOC(=O)CCCN(C)C(C)(C)C#N
T/C [7]: 103 % of control | T/C (endpoint: mean survival time, dose: 400.0 mg/kg/injection, schedule: Q01DX009 (ip), vehicle: saline with Tween-80): 108 % of control

CC(C)(C)C1C=Nn2c(=O)n(-c3ccccc3)c(=O)n21 (stereo not given)
T/C (endpoint: mean survival time, dose: 12.5 mg/kg/injection, schedule: Q01DX009 (ip), vehicle: other): 100 % of control | T/C (endpoint: mean survival time, dose: 25.0 mg/kg/injection, schedule: Q01DX009 (ip), vehicle: other): 94 % of control | T/C (endpoint: mean survival time, dose: 50.0 mg/kg/injection, schedule: Q01DX009 (ip), vehicle: other): 101 % of control | T/C (endpoint: mean survival time, dose: 100.0 mg/kg/injection, schedule: Q01DX009 (ip), vehicle: other): 100 % of control | T/C (endpoint: mean survival time, dose: 200.0 mg/kg/injection, schedule: Q01DX009 (ip), vehicle: other): 99 % of control

Source: PubChem BioAssay AID256 (DTP/NCI, 2004)
